Source: patent publication US20240318225A1, “TECHNIQUES FOR ISOLATION OR ANALYSIS OF BACTERIAL PATHOGENS FROM PATIENT SAMPLES” (General Electric Company, priority 2021, published 2024)

System: E. coli clinical isolate
Test: microfluidic single cell antimicrobial susceptibility testing
Assay type: cell-based
Details: 8 μg/ml ampicillin; during the duration of the experiment
Description: The microfluidic device for single cell antimicrobial susceptibility testing was fabricated by soft lithography. The microchannel master mold was fabricated by photolithography patterning and reactive-ion etching of a silicon wafer. Microchannel layers were then fabricated by PDMS molding on the master mold. PDMS pre-polymer and cross-linker were mixed at 10:1 ratio. The mixture was poured on the master mold and incubated for at least 3 hours at 65° C. The single cell antimicrobial susceptibility testing device was fabricated by bonding the PDMS layer with a glass slide. Inlet and outlet reservoirs were created by punching the PDMS layer with a biopsy puncher.
To perform the microfluidic single cell antimicrobial susceptibility testing experiment, ampicillin was added to the enriched samples with concentrations of 0 μg/mL, 2 μg/mL, 4 μg/mL, and 8 μg/mL. Each respective solution was loaded into a microfluidic device by capillary force. The devices were then mounted onto an epi-fluorescence microscope (Leica DMI 4000B, objective 20× or 40×) with a microscope heating stage. The presence of bacteria was examined, and the bacterial growth was monitored continuously.
The disclosed workflows may be used for antimicrobial susceptibility testing using a microfluidic device. […]

## CC1(C)S[C@@H]2[C@H](NC(=O)[C@H](N)c3ccccc3)C(=O)N2[C@H]1C(=O)O [ampicillin]
  effect on bacteria at higher concentration: some bacteria were lysed
